# Where two headings read alike, the source gives them in different places. Square brackets hold non-standard residues; d marks the D form. Peptide text beside a SMILES is read from it.
# Columns and labels:
# [1] = test system: rabbit red blood cells; format: cell-based; settings: red cells of rabbit, 1 h
# [2] = test system: trypsin and proteinase K; format: in vitro ADME
# Experimental: One of the major factors limiting the clinical utility of AMPs lies in their instability to rapid degradation by proteases which are present abundantly in biological fluids and/or secreted by microorganisms. In order to evaluate the proteolytic stability of the designed β-sheet forming peptides, the D- and L-isoforms of the n=2 peptide sequence (IK8-all D or IK8-all L, respectively) were treated with the broad spectrum serine proteases, trypsin and proteinase K, for 6 h and evaluated their antimicrobial activities against S. aureus, E. coli and P. aeruginosa. […] The structural integrity of synthetic peptides following treatment with both proteases was also evaluated using MALDI-TOF mass spectroscopy. […] The cleavage sites of both enzymes for the IK8-all L peptide are illustrated in FIG. 19a with the mass spectra peaks assigned to the major fragments.
# [3] = test system: five microorganisms tested (S. epidermidis, S. aureus, E. coli, P. aeruginosa, C. albicans); format: cell-based; settings: 18 h
# Experimental: After 18 h treatment of microorganisms with various concentrations of peptide (0.5×MIC, MIC and 2×MIC), the respective samples were subjected to a series of ten-fold dilutions and plated onto LB agar plates. The plates were then incubated overnight and counted for colony-forming units. A sample containing microbes treated with 10% (by volume) water was used as a control. Results are expressed as Log(CFU/mL) and as % Kill=[(cell count of control−survivor count of peptide-treated microbes)/cell count of control]×100.
# [4] = test system: S. aureus and P. aeruginosa; assay: FE-SEM analysis of treated bacteria (Example 2); format: cell-based, Staphylococcus aureus, Pseudomonas aeruginosa; settings: 125 mg L^−1, 2 h
# Experimental: S. aureus and P. aeruginosa suspensions at ˜3×10^8 CFU mL^−1 (100 μL) were separately incubated with an equal volume of broth containing final concentrations of 10% (by volume) of HPLC water or 125 mg L^−1 of IK8-all D in a 96 well-plate for 2 h. Eight replicates of each condition was pooled into a microfuge tube, pelleted down at 4000 rpm for 5 min, and rinsed twice with PBS. The samples were then fixed with 4% formaldehyde at room temperature for 20 min, followed by rinsing with deionized water. Dehydration of the cells was performed using a series of graded ethanol solutions (35, 50, 75, 90, 95 and 100%). The samples were mounted on a copper tape, allowed to air-dry and sputter coated with platinum for imaging using a FE-SEM setup (JEOL JSM-7400F, Japan).
# [5] = test system: E. coli; format: cell-based, Escherichia coli; settings: end of the experiment (up to 20 passages)
# [6] = test system: S. aureus; format: cell-based, Staphylococcus aureus; settings: passage 20
# [7] = test system: P. aeruginosa; assay: MBC against clinical isolates; format: cell-based; settings: clinical isolate
# [8] = test system: C. neoformans; assay: MBC against clinical isolates; format: cell-based; settings: clinical isolate
# [9] = test system: clinically isolated drug resistant microorganisms; assay: MBC comparison over clinical isolates; format: cell-based; settings: antibacterial activities
# [10] = test system: intracellular S. aureus in RAW264.7 mouse macrophages; format: cell-based, Staphylococcus aureus; settings: intracellular in RAW264.7 mouse macrophages, 8 h
# Experimental: RAW264.7 cells were seeded at a density of 4×10^5 per well of a 12-well plate. Following an overnight incubation, the cells were infected for 1 h with 13.3 μL of processed bacteria (3.0×10^8 CFU mL^−1) to achieve a 10:1 multiplicity of infection. The cells were then rinsed twice with 1×PBS and incubated with 1 mL of fresh media containing 50 μg mL^−1 gentamicin for 45 min to eliminate extracellular bacteria. The media in each well were removed and the infected cells were incubated with fresh media containing 10% (by volume) water or various concentrations of IK8-all D (2, 3.9, 7.8, 15.6 and 31.3 mg L^−1) for up to 4 and 8 h. At the respective time points, the infected cells were trypsinized, rinsed twice with PBS and lyzed with 800 μL of sterile water with incubation at room temperature for 10 min, followed by 5 min sonication. The intracellular bacteria count was determined by plating serially diluted cultures onto LB agar and enumerated after 24 h.
# [11] = in vitro; format: cell-based; settings: mouse, RAW264.7 macrophage cells
# Experimental: RAW264.7 and WI-38 cells were respectively seeded at a density of 1.5×10^4 and 1×10^4 per well of a 96-well plate. Following overnight incubation, the cells were treated with 1.0 to 125 mg L^−1 of IK8-all D for 48 h. Subsequently, the incubation media in each well were replaced with 100 μL of growth media and 10 μL of MTT solution (5 mg·ml^−1 in PBS) and the cells were incubated for 4 h at 37° C. according to the manufacturer's directions. Resultant formazan crystals formed in each well were solubilized using 150 μL of DMSO upon removal of growth media. A 100 μL aliquot from each well was then transferred to a new 96-well plate for determination of absorbance using a microplate spectrophotometer at wavelengths of 550 nm and 690 nm. Relative cell viability was expressed as [(A550−A690)sample/(A550−A690)control]×100%.
# [12] = test system: S. epidermidis; settings: 18 h
# [13] = test system: S. aureus; settings: 18 h
# [14] = test system: E. coli; settings: 18 h
# [15] = test system: P. aeruginosa; settings: 18 h
# [16] = test system: C. albicans
# [17] = test system: Methicillin-resistant S. aureus; settings: clinical isolate
# [18] = test system: A. baumanni
# [19] = test system: Vancomycin-resistant Enterococci; settings: clinical isolate
# [20] = test system: clinically isolated Mycobacterium tuberculosis
# [21] = test system: 5 microorganisms tested (S. epidermidis, S. aureus, E. coli, P. aeruginosa, C. albicans); assay: Mean MIC over the panel and selectivity index (Example 2)
# [22] = test system: 5 microorganisms tested (S. epidermidis, S. aureus, E. coli, P. aeruginosa, C. albicans); assay: Mean MIC over the panel and selectivity index (Example 1); format: cell-based
# Experimental: Red blood cells suspension incubated with PBS was used as negative control.
# [23] = in vitro; format: cell-based; settings: human
# Experimental: (§1) HeLa, HDF and NR8383 cells were respectively seeded at a densities of 1×10^4, 1×10^4 and 4×10^4 cells per well of a 96-well plate. Following overnight incubation, the cells were treated with 3.9 to 500 mg L^−1 of (IRIK)3-NH2 (SEQ ID NO: 21) and (VRVK)3-NH2 (SEQ ID NO: 20) for 24 h. For the adherent HeLa and HDF cell lines, the incubation media in each well were replaced with 100 μL of growth media and 10 μL of MTT solution (5 mg·ml^−1 in PBS). The cells were further incubated for 4 h at 37° C. according to the manufacturer's directions. Resultant formazan crystals formed in each well were solubilized using 150 μL of DMSO upon removal of growth media. A 100 μL aliquot from each well was then transferred to a new 96-well plate for determination of absorbance using a microplate spectrophotometer at wavelengths of 550 nm and 690 nm. Relative cell viability was expressed as [(A550−A690)sample/(A550−A690)control]×100%.
# [24] = in vitro; format: cell-based; settings: rat, NR8383 macrophage cells
# Experimental: as §1
# For the semi-adherent NR8383 cells, 20 μL of […]-BLUE® reagent was added into each well after treatment and the plate was incubated for a further 4 h. The fluorescence intensity readings of the wells were determined at excitation wavelength of 560 nm and emission wavelength of 590 nm using a microplate reader. […]
# [25] = test system: S. epidermidis; settings: 18 h; remark: listed apart in the source
# [26] = test system: S. aureus; settings: 18 h; remark: listed apart in the source
# [27] = test system: E. coli; settings: 18 h; remark: listed apart in the source
# [28] = test system: P. aeruginosa; settings: 18 h; remark: listed apart in the source
# [29] = test system: C. albicans; settings: 42 h
# [30] = test system: LPS-stimulated NO production in NR8383 rat macrophage cell line; assay: Endotoxin neutralization assay (Griess nitrite); format: cell-based; settings: 125 mg L^−1 peptide, 100 ng mL^−1 LPS, 18 h
# Experimental: Untreated cells and cells that were stimulated with LPS alone served as the […] controls, respectively. The amount of NO produced was estimated by quantifying the concentration of the stable NO metabolite nitrite in the isolated supernatant fractions using the Griess reagent (1% sulphanilamide, 0.1% N-1-napthylethylenediamine dihydrochloride, 5% phosphoric acid) according to the manufacturer's protocol. The absorbance was measured at 540 nm and nitrite concentrations were determined using a standard reference curve prepared from known concentrations of NaNO2 solutions.
smiles,measurement,setting,value
"CC[C@@H](C)[C@@H](N)C(=O)N[C@H](CCCNC(=N)N)C(=O)N[C@@H](C(=O)N[C@H](CCCCN)C(=O)N[C@@H](C(=O)N[C@H](CCCNC(=N)N)C(=O)N[C@@H](C(=O)N[C@H](CCCCN)C(N)=O)[C@H](C)CC)[C@H](C)CC)[C@H](C)CC [IK8-all D, irikirik-NH2] (H-[dI][dR][dI][dK][dI][dR][dI][dK]-NH2; N-terminus assumed)","HC10, haemolysis concentration 10%: lowest peptide concentration that induces ≧10% haemolysis",[1],1750 mg/L
same,antimicrobial activity after protease treatment,[2],retained its antibacterial activities
same,"structural integrity after protease treatment, MALDI-TOF MS",[2],remained intact
same,killing efficiencies,[3],> 99.9%
same,log reductions in colony counts,[3]; 2,more than 3 log
same,surface morphology under FE-SEM,[4],significant membrane damage and corrugation
same,MICn/MIC0,[5],1
same,"MICn/MIC0, fold increase in MIC",[6],1
same,MBC P. aeruginosa,[7],15.6 µg/mL
same,MBC C. neoformans,[8],7.8 µg/mL
same,folds reduction in MBCs compared with the L-enantiomer,[9],4-8 folds
same,log reductions in intracellular S. aureus colony counts compared to the control,[10],1.2-1.5 log
same,viability at 48 h,[11],> 80%
same,MIC S. epidermidis,[12],2.0 µg/mL
same,MIC S. aureus,[13],3.9 µg/mL
same,MIC E. coli,[14],3.9 µg/mL
same,MIC P aeruginosa,[15],7.8 µg/mL
same,MIC C. albicans,[16],3.9 µg/mL
same,MBC Methicillin-resistant S. aureus,[17],3.9 µg/mL
same,MBC A. baumanni,[18],31.3 µg/mL
same,MBC Vancomycin-resistant Enterococci,[19],3.9 µg/mL
same,MIC M. tuberculosis,[20]; strain number 1140,15.6 µg/mL
same,MIC M. tuberculosis,[20]; strain number 1146,15.6 µg/mL
same,"GM, geometric mean of MIC values for the 5 microorganisms tested",[21],4.3 µg/mL
same,fold reduction in MIC values compared with the L-enantiomer,[21]; against the various bacteria,2-16 fold
CC(C)[C@H](N)C(=O)N[C@@H](CCCNC(=N)N)C(=O)N[C@H](C(=O)N[C@@H](CCCCN)C(=O)N[C@H](C(=O)N[C@@H](CCCNC(=N)N)C(=O)N[C@H](C(=O)N[C@@H](CCCCN)C(=O)N[C@H](C(=O)N[C@@H](CCCNC(=N)N)C(=O)N[C@H](C(=O)N[C@@H](CCCCN)C(N)=O)C(C)C)C(C)C)C(C)C)C(C)C)C(C)C [(VRVK)3-NH2] (H-VRVKVRVKVRVK-NH2; N-terminus assumed),"GM, geometric mean of MIC values for the 5 microorganisms tested",[22],34.6 µg/mL
same,"viability at 24 h, 250 mg/L",[23],30%
same,"viability at 24 h, 250 µg/mL",[23]; HDF dermal fibroblast cells,> 53%
same,"viability at 24 h, 250 µg/mL",[24],> 53%
same,MIC S. epidermidis,[25],1.0 µg/mL
same,MIC S. aureus,[26],62.5 µg/mL
same,MIC E. coli,[27],15.6 µg/mL
same,MIC P. aeruginosa,[28],62.5 µg/mL
same,MIC C. albicans,[29],31.3 µg/mL
CC[C@H](C)[C@H](N)C(=O)N[C@@H](CCCNC(=N)N)C(=O)N[C@H](C(=O)N[C@@H](CCCCN)C(=O)N[C@H](C(=O)N[C@@H](CCCNC(=N)N)C(=O)N[C@H](C(=O)N[C@@H](CCCCN)C(=O)N[C@H](C(=O)N[C@@H](CCCNC(=N)N)C(=O)N[C@H](C(=O)N[C@@H](CCCCN)C(N)=O)[C@@H](C)CC)[C@@H](C)CC)[C@@H](C)CC)[C@@H](C)CC)[C@@H](C)CC [(IRIK)3-NH2] (H-IRIKIRIKIRIK-NH2; N-terminus assumed),"GM, geometric mean of MIC values for the 5 microorganisms tested",[22],162.7 µg/mL
same,"nitrite concentration, LPS-stimulated NO production",[30],reduced to the control level
same,"viability at 24 h, 125 µg/mL",[23]; HDF dermal fibroblast cells,> 80%
same,"viability at 24 h, 125 µg/mL",[24],> 80%
same,MIC S. epidermidis,[25],1.0 µg/mL
same,MIC S. aureus,[26],62.5 µg/mL
same,MIC E. coli,[27],125 µg/mL
same,MIC P. aeruginosa,[28],500 µg/mL
same,MIC C. albicans,[29],125 µg/mL
